Results reported in patent publication US20160177261A1, “METHODS OF INDUCING AND PREVENTING NEUROFIBROMATOSIS IN SCHWANN CELLS” (University of Central Florida Research Foundation, Inc., priority 2007, published 2016).
“Also recorded” adds a separate entry of the source.

Legend:
Type in all cases: cell-based, rat
Pak = experiment: Western blot densitometry of total Pak protein in subconfluent SCs; conditions: NRG1 and laminin-1 30 min in the presence and absence of AG825
Description: (§1) FIG. 4: Soluble Laminin-1 Stimulates Phosphorylation of Sch. A, C) Subconfluent SC cultures grown on PLL were stimulated with laminin-1 (10 μg/ml) for 30 minutes after overnight serum starvation. Western blot analysis using antibodies specific for the phosphorylated forms of Sch (PS518-Sch) and Pak (P-Pak) and antibodies against total Sch (Sch-C18), Pak, and β1 integrin are shown. B, D). Quantification of Western blots for starved (D0.5) and laminin-1 stimulated (Lam) cultures is shown. The graphs represent the average fold increase in each condition observed in three or more experiments. GAPDH was used as a loading control for all blots. Error bars represent the SEM for each condition. P values are <0.05(*) and <0.01(**).
(§2) Subconfluent SC cultures grown on PLL were serum-starved overnight and were stimulated for 30 minutes with NRG1 (10 ng/ml) and laminin-1 ([…]) together, in the absence and presence of AG825 (1 μM). […] Total protein expression was analyzed using antibodies against Sch (Sch-C18), Pak, β1 integrin, and ErbB2. B, D, F) Quantification of the expression levels of phosphorylated forms of Sch (PS518-Sch) and Pak (P-Pak) were assessed in starved (D0.5), NRG1 and laminin-1 stimulated (NRG+Lam), and NRG1 plus laminin-1 and AG825 (N+L+A) stimulated cultures. The amount of total Sch (Sch-C18), Pak, β1 integrin, and ErbB2 proteins were measured by densitometry. […]

Sch = experiment: Western blot densitometry of total Sch (Sch-C18) protein in subconfluent SCs; conditions: NRG1 and laminin-1 30 min in the presence and absence of AG825
Description: as §1, §2

ErbB2 = experiment: Western blot densitometry of total ErbB2 protein in subconfluent SCs
Description: (§3) FIG. 3: NRG1 stimulates phosphorylation of Sch by PKA. A, C) Subconfluent SC cultures grown on PLL were serum-starved overnight and were stimulated for 30 minutes with NRG1 (10 ng/ml) in the absence and presence of AG825 (1 μM). Western blot analysis was used to determine the levels of phosphorylated and total ErbB2, Sch, and Pak. B, D) Quantification of the western blots of starved (D0.5), NRG1 stimulated (NRG) and NRG1 plus AG825 (N+A) stimulated cultures is shown. E) Subconfluent SCs grown as above were stimulated for 30 minutes with NRG in the presence and absence of PKI 14-22 (50 nM), and with forskolin (FSK; 2 μM) alone. F) Quantification of the Western blots for ErbB2, Sch, and Pak in starved (D0.5) cultures, and in those stimulated with NRG1 (NRG), NRG1 with PKI 14-22 (N+P), and forskolin (FSK) is shown. GAPDH was used as a loading control for all blots. The graphs represent the average fold increase in each condition in three or more experiments. […]
(§4) FIG. 6: β1 integrin and ErbB2 Exist as a Complex on the Plasma Membrane. […] E) Quantification of total β1 integrin and ErbB2 expression was assessed by densitometry in starved (D0.5), NRG1 stimulated (NRG) and NRG with AG825 (N+A) stimulated cultures. […] G) Quantification of total β1 integrin and ErbB2 expression in starved (D0.5), laminin-stimulated (Lam) and laminin+AG825 (L+A) stimulated cultures is shown. […]

P-Pak = experiment: Western blot densitometry of phosphorylated Pak in subconfluent SCs
Description: as §3, with “shown.” for “shown. GAPDH was used as a loading control for all blots. The graphs represent the average fold increase in each condition in three or more experiments.”
FIG. 4: Soluble Laminin-1 Stimulates Phosphorylation of Sch. […] Quantification of Western blots for starved (D0.5) and laminin-1 stimulated (Lam) cultures is shown. […]
Subconfluent SC cultures grown on PLL were serum-starved overnight and were stimulated for 30 minutes with NRG1 (10 ng/ml) and laminin-1 ([…]) together, in the absence and presence of AG825 (1 μM). […] Total protein expression was analyzed using antibodies against Sch (Sch-C18), Pak, β1 integrin, and ErbB2. […] The amount of total Sch (Sch-C18), Pak, β1 integrin, and ErbB2 proteins were measured by densitometry. […]

β1 integrin = experiment: Western blot densitometry of total β1 integrin protein in subconfluent SCs
Description: as §1
as §4, with “Membrane. A) Subconfluent SC cultures grown on PLL and laminin-1 were starved overnight and were stimulated with NRG1 for 30 minutes. SCs were triple-labeled with the indicated antibodies to assess protein co-localization.” for “Membrane.”
as §2

PS518-Sch = experiment: Western blot densitometry of Sch-S518 phosphorylation in subconfluent SCs
Description: FIG. 3: NRG1 stimulates phosphorylation of Sch by PKA. A, C) Subconfluent SC cultures grown on PLL were serum-starved overnight and were stimulated for 30 minutes with NRG1 (10 ng/ml) in the absence and presence of AG825 (1 μM). Western blot analysis was used to determine the levels of phosphorylated and total ErbB2, Sch, and Pak. B, D) Quantification of the western blots of starved (D0.5), NRG1 stimulated (NRG) and NRG1 plus AG825 (N+A) stimulated cultures is shown. E) Subconfluent SCs grown as above were stimulated for 30 minutes with NRG in the presence and absence of PKI 14-22 (50 nM), and with forskolin (FSK; 2 μM) alone. F) Quantification of the Western blots for ErbB2, Sch, and Pak in starved (D0.5) cultures, and in those stimulated with NRG1 (NRG), NRG1 with PKI 14-22 (N+P), and forskolin (FSK) is shown. GAPDH was used as a loading control for all blots. The graphs represent the average fold increase in each condition in three or more experiments. Error bars represent the SEM for each condition. P values are <0.05(*) with respect to starved SCs or as indicated.
as §1
Subconfluent SC cultures grown on PLL were serum-starved overnight and were stimulated for 30 minutes with NRG1 (10 ng/ml) and laminin-1 ([…]) together, in the absence and presence of AG825 (1 μM). A, C, E, G) Western blot analyses were conducted using phospho-specific antibodies for Sch (PS518-Sch), Pak (P-Pak), and CREB (P-CREB). Total protein expression was analyzed using antibodies against Sch (Sch-C18), Pak, β1 integrin, and ErbB2. B, D, F) Quantification of the expression levels of phosphorylated forms of Sch (PS518-Sch) and Pak (P-Pak) were assessed in starved (D0.5), NRG1 and laminin-1 stimulated (NRG+Lam), and NRG1 plus laminin-1 and AG825 (N+L+A) stimulated cultures. The amount of total Sch (Sch-C18), Pak, β1 integrin, and ErbB2 proteins were measured by densitometry. GAPDH was used as a loading control. The graphs represent the average fold increase in each condition in three or more experiments. Error bars represent the SEM for each condition. […]

P-CREB = experiment: Western blot of phosphorylated CREB in subconfluent SCs
Description: as §3, with “shown.” for “shown. GAPDH was used as a loading control for all blots. The graphs represent the average fold increase in each condition in three or more experiments.”
as §2, with “cultures.” for “cultures. The amount of total Sch (Sch-C18), Pak, β1 integrin, and ErbB2 proteins were measured by densitometry.”

P-ErbB2 = experiment: Western blot densitometry of phosphorylated ErbB2 in subconfluent SCs; conditions: NRG1 10 ng/ml 30 min with AG825 (1 μM)
Description: as §3, with “experiments. Error bars represent the SEM for each condition.” for “experiments.”
Primary rat SCs were grown to approximately 60% confluency on PLL coated dishes. […] Following extraction, the SC lysate was measured for protein concentration, and […] of total SC lysate was separated by SDS-PAGE and was transferred to PVDF membranes. […] Bands intensities were quantified and normalized to GAPDH, and to their respective total proteins for phosphorylated forms. […]

[1] = AG825 in the absence of NRG1 (data not shown)
[2] = NRG1 and laminin-1 30 min in the presence of AG825 (1 μM), compared to starved SCs

COc1cc(/C=C(\C#N)C(N)=O)cc(CSc2nc3ccccc3s2)c1O [AG825]
effect on Pak protein levels (Pak): not significantly changed
effect on Sch protein levels (Sch): not significantly changed
effect on NRG1 induced change of ErbB2 protein levels (ErbB2; NRG1 30 min with AG825 (1 μM)): attenuated the reduction in ErbB2 levels; also recorded: suppressed NRG1's effect; also recorded: attenuates the loss of ErbB2 protein
effect on ErbB2 levels (ErbB2; laminin-1 30 min with AG825 (1 μM), with respect to laminin-stimulated SCs): did not alter
effect on basal level of phosphorylated Pak (P-Pak; [1]): increases basal levels
P-Pak fold increase (P-Pak; [2]): 3.1 fold
effect on NRG1 induced increase of β1 integrin protein levels (β1 integrin; NRG1 30 min with AG825 (1 μM)): suppressed NRG1's effect; also recorded: inhibits the increase in β1 integrin
effect on β1 integrin protein levels (β1 integrin; NRG1 and laminin-1 30 min in the presence and absence of AG825): not significantly changed
decrease in β1 integrin levels (β1 integrin; laminin-1 30 min with AG825 (1 μM)): 50%
effect on basal level of phosphorylated Sch (PS518-Sch; [1]): increases basal levels
reduction of Sch-S518 phosphorylation in response to NRG1 (PS518-Sch; NRG1 10 ng/ml 30 min with inhibitor (AG825 1 μM or PKI 14-22 50 nM)): 50%
effect on NRG1 stimulated Sch-S518 phosphorylation (PS518-Sch; NRG1 30 min with inhibitor (AG825 1 μM or PKI 14-22 50 nM)): reduced
PS518-Sch fold increase (PS518-Sch; [2]): 4.6 fold
effect on NRG1 stimulated CREB phosphorylation (P-CREB; NRG1 30 min with inhibitor (AG825 or PKI 14-22 50 nM)): inhibit this phosphorylation
effect on CREB phosphorylation in dually stimulated SCs (P-CREB; NRG1 and laminin-1 30 min with AG825 (1 μM)): inhibited phosphorylation of CREB; also recorded: eliminated
effect on NRG1 stimulated phosphorylation of ErbB2 (P-ErbB2): reduced NRG1 stimulated phosphorylation of ErbB2 significantly
